EP4417602A1, “SUBSTITUTED PYRAZOLE CARBOXAMIDES, SALTS THEREOF AND THEIR USE AS HERBICIDALLY ACTIVE SUBSTANCES” (Bayer AG, priority 2023, dated 2024)

Tests used:
ECHCG [1] = experiment: A. Herbicidal pre-emergence action on harmful plants (Tables A); assay type: in vivo, Echinochloa crus-galli; conditions: visual grading after ca. 3 weeks vs untreated controls, 100% = plants have died off, 0% = as control plants
From the text: (§1) Seeds of mono- and dicotyledonous weed plants were sown in plastic pots (double sowings with one species of mono- and one species of dicotyledonous weed plants per pot), in sandy loam, and covered with soil. The compounds according to the invention, formulated in the form of wettable powders (WP) or as emulsifiable concentrates (EC), were applied to the surface of the covering soil as aqueous suspension or emulsion, with the addition of 0.5% of an additive, at an application rate of 6001 of water per hectare (converted). Following treatment, the pots were placed in a greenhouse and kept under optimum growth conditions for the test plants. The visual grading of the damage to the test plants was carried out after ca. 3 weeks in comparison to untreated controls (herbicidal effect in percent (%): 100% effect = plants have died off, 0% effect = as control plants). Tables A1 to A12, below, show the effects of selected compounds of the general formula (I) according to table 1 on various harmful plants and an application rate corresponding to 1280 g/ha or below obtained by the experimental procedure mentioned above. Table A1: pre-emergence activity at 1280g/ha against ABUTH in %

LOLRI = experiment: as above; assay type: in vivo, Lolium rigidum; conditions: visual grading after ca. 3 weeks vs untreated controls, 100% = plants have died off, 0% = as control plants
From the text: as §1

SETVI = experiment: as above; assay type: in vivo, Setaria viridis; conditions: visual grading after ca. 3 weeks vs untreated controls, 100% = plants have died off, 0% = as control plants
From the text: as §1

POAAN [2] = experiment: as above; assay type: in vivo, Poa annua
From the text: as §1

DIGSA [3] = experiment: as above; assay type: in vivo, Digitaria sanguinalis
From the text: as §1

STEME [4] = experiment: B. Herbicidal post-emergence action on harmful plants (Tables B); assay type: in vivo, Stellaria media; conditions: application rate 1280 g/ha; Table B6
Method: (§2) Seeds of mono- and dicotyledonous weed plants were placed in plastic pots in sandy loam soil (doubly sown with in each case one species of mono- or dicotyledonous weed plants per pot), covered with soil and cultivated in a greenhouse under controlled growth conditions. 2 to 3 weeks after sowing, the test plants were treated at the one-leaf stage. The compounds of the invention, formulated in the form of wettable powders (WP) or as emulsion concentrates (EC), were applied onto the green parts of the plants as aqueous suspension or emulsion with addition of 0.5% additive at a water application rate of 600 liters per hectare (converted). After the test plants had been kept in the greenhouse under optimum growth conditions for about 3 weeks, the activity of the preparations was rated visually in comparison to untreated controls. For example, 100% activity = the plants have died, 0% activity = like control plants. Tables B1 to B12, below, show the effects of selected compounds of the general formula (I) according to table 1 on various harmful plants and an application rate corresponding to 1280 g/ha or below obtained by the experimental procedure mentioned above. Table B1a: post-emergence activity at 1280g/ha against ABUTH in %

POAAN [5] = experiment: as above; assay type: in vivo, Poa annua; conditions: application rate 1280 g/ha; Table B7a
Method: as §2

AMARE [6] = experiment: as above; assay type: in vivo, Amaranthus retroflexus; conditions: application rate 1280 g/ha; Table B8
Method: as §2

MATIN [7] = experiment: A. Herbicidal pre-emergence action on harmful plants (Tables A); assay type: in vivo, Matricaria inodora; conditions: application rate 1280 g/ha; visual grading after ca. 3 weeks vs untreated controls; 100% = plants have died off, 0% = as control plants
From the text: as §1

STEME [8] = experiment: as above; assay type: in vivo, Stellaria media; conditions: application rate 1280 g/ha; visual grading after ca. 3 weeks vs untreated controls; 100% = plants have died off, 0% = as control plants
From the text: as §1

AMARE [9] = experiment: as above; assay type: in vivo, Amaranthus retroflexus; conditions: application rate 1280 g/ha; visual grading after ca. 3 weeks vs untreated controls; 100% = plants have died off, 0% = as control plants
From the text: as §1

ECHCG [10] = experiment: B. Herbicidal post-emergence action on harmful plants (Tables B); assay type: in vivo, Echinochloa crus-galli; conditions: application rate 1280 g/ha; Table B2a
Method: as §2

MATIN [11] = experiment: as above; assay type: in vivo, Matricaria inodora; conditions: application rate 1280 g/ha; Table B4a
Method: as §2

VERPE = experiment: as above; assay type: in vivo, Veronica persica; conditions: application rate 1280 g/ha; Table B11a
Method: as §2

ALOMY = experiment: A. Herbicidal pre-emergence action on harmful plants (Tables A); assay type: in vivo, Alopecurus myosuroides; conditions: application rate 1280 g/ha; Table A9a
From the text: as §1

DIGSA [12] = experiment: B. Herbicidal post-emergence action on harmful plants (Tables B); assay type: in vivo, Digitaria sanguinalis; conditions: application rate 1280 g/ha; Table B12a
Method: as §2

[13] = application rate 1280 g/ha, visual grading after ca. 3 weeks vs untreated controls, 100% = plants have died off, 0% = as control plants
[14] = application rate 320 g/ha, Table A12b
[15] = application rate 1280 g/ha, Table A12a
[16] = application rate 320 g/ha, Table A7b
[17] = application rate 80 g/ha, Table A7c

Structure (SMILES) | pre-emergence activity against ECHCG (ECHCG [1]; application rate 320 g/ha) [%] | pre-emergence activity against ECHCG (ECHCG [1]; application rate 1280 g/ha) [%] | pre-emergence activity against LOLRI (LOLRI; application rate 1280 g/ha) [%] | pre-emergence activity against SETVI (SETVI; application rate 1280 g/ha) [%] | pre-emergence activity against POAAN (POAAN [2]; [13]) [%] | pre-emergence activity against DIGSA (DIGSA [3]; [14]) [%] | pre-emergence activity against DIGSA (DIGSA [3]; [15]) [%] | post-emergence activity against POAAN (POAAN [5]) [%] | post-emergence activity against AMARE (AMARE [6]) [%] | pre-emergence activity against LOLRI (LOLRI; application rate 320 g/ha) [%] | pre-emergence activity against MATIN (MATIN [7]) [%] | pre-emergence activity against STEME (STEME [8]) [%] | pre-emergence activity against POAAN (POAAN [2]; [16]) [%] | pre-emergence activity against SETVI (SETVI; application rate 320 g/ha) [%] | pre-emergence activity against POAAN (POAAN [2]; [17]) [%] | post-emergence activity against ECHCG (ECHCG [10]) [%] | also measured
CCOCc1nn(C)cc1C(=O)N1CCC1Cc1ccccc1F (racemic) [Example I-105] | 90 | 100 | 90 | 100 | 100 | 100 | 100 | 90 | 90 |  |  |  |  |  |  |  | post-emergence activity against STEME (STEME [4]): 90%
CCOCc1nn(C)cc1C(=O)N1CCC1Cc1c(F)cccc1Cl (racemic) [Example I-110] | 90 | 100 | 100 | 100 | 100 | 90 | 90 |  | 100 | 90 | 90 | 90 | 90 |  |  |  | 
CCOCc1nn(C)cc1C(=O)N1CCC1Cc1ccccc1Cl (racemic) [Example I-106] | 90 | 100 | 90 | 100 | 100 | 90 | 100 |  | 90 |  |  | 90 | 100 | 100 |  |  | pre-emergence activity against ECHCG (ECHCG [1]; application rate 80 g/ha): 90%; pre-emergence activity against SETVI (SETVI; application rate 80 g/ha): 90%
COCc1c(C(=O)N2CCCC2Cc2ccc(Cl)cc2Cl)cnn1C (racemic) [Example I-166] |  | 90 | 100 | 90 | 100 |  |  | 90 |  |  |  | 90 | 90 |  | 90 | 90 | pre-emergence activity against AMARE (AMARE [9]): 90%; post-emergence activity against MATIN (MATIN [11]): 90%; post-emergence activity against VERPE (VERPE): 90%
COCc1nn(CCC(OC)OC)cc1C(=O)N1CCCC1Cc1ccccc1F (racemic) [Example I-048] |  | 90 | 90 |  | 100 |  | 90 |  | 90 |  |  |  | 90 |  |  |  | 
C=CCn1cc(C(=O)N2CCCC2Cc2ccccc2F)c(COC)n1 (racemic) [Example I-039] |  | 90 | 90 | 90 | 100 | 90 | 90 |  |  | 90 | 90 | 90 | 100 | 90 | 90 | 90 | pre-emergence activity against ALOMY (ALOMY): 90%; post-emergence activity against DIGSA (DIGSA [12]): 90%
